# Experimental data taken from EPA's ToxValDB 9.5.
# Values joined by “and” are separate entries in the source; they are usually repeats but may differ in a detail not shown here. Equal values may be shown once.
# Key:
# [1] = system: Rattus norvegicus
# [2] = system: Rattus norvegicus; details: M/F
# [3] = system: Rattus norvegicus; details: for NOAEL: M/F
# [4] = system: Mus musculus
# [5] = system: Rattus norvegicus; details: oral, gavage
# [6] = system: Rattus norvegicus; details: short-term
# [7] = system: Rattus norvegicus; details: uterotrophic; duration: 2 days; injection; subcutaneous; Active
# [8] = chronic, duration: 2 years, oral, diet, glomerulonephritis, atrophic testes, eye keratitis reduced body weight and organ weight
# [9] = subchronic, duration: 30 days, oral, gavage, F, C57BL/6, Cardiovascular: Heart: Heart Weight, Relative + Hepatic: Liver: Liver Weight, Relative + Immune: Multi-Organ: Immunoglobulin M (IgM), Serum…
# [10] = subchronic, duration: 30 days, oral, gavage, M, C57BL/6, Cardiovascular: Heart: Heart Weight, Relative + Hepatic: Liver: Liver Weight, Relative + Immune: Multi-Organ: Immunoglobulin M (IgM), Serum…
# [11] = acute, duration: 1 hours, oral, gavage, M, inhibition of acetic acid-induced writhing response
# [12] = duration: 3 days, injection, subcutaneous, F, Sprague-Dawley, uterus: absolute blotted uterine weight
# [13] = duration: 4 days, oral, gavage, F, Wistar, female reproductive system: vaginal cornification + uterus: uterine wet weight (relative)
# [14] = duration: 4 days, oral, gavage, F, Wistar, uterus: uterine dry weight (relative)
# [15] = duration: 10 days, oral, gavage, M, BrlHan:WIST, body weight + spontaneous locomotion
# [16] = duration: 10 days, oral, gavage, M, BrlHan:WIST, male accessory sex gland: relative bulbourethral gland weight in the presence of TP
# [17] = duration: 28 days, oral, gavage, F, Crj:CD, kidney: kidney weight
# [18] = duration: 28 days, oral, gavage, F, Crj:CD, liver: liver weight + thymus: serum T3
# [19] = duration: 28 days, oral, gavage, M, Crj:CD, body weight + brain: brain weight + food consumption + liver: liver weight + testis: testes weight + thymus: serum T3 + thymus: serum T4 + …
# [20] = subchronic, duration: 30 days, oral, gavage, M, C57BL/6, Hepatic: Liver: Liver Weight, Relative
# [21] = chronic, duration: 2 years, oral, diet, RBC, ChE inhibition + reduced hemoglobin, hematocrit and RBCs
# [22] = chronic, duration: 2 years, oral, diet, reduced body weight
# [23] = reproduction developmental, inhalation, increased liver weight in p1 males
# [24] = short-term, duration: 28 days, oral, gavage, F, C57BL/6, Liver: Acyl-CoA Oxidase Activity, Liver + Multi-organ: IgM Serum Titer + Spleen: Spleen Weight, Absolute + Spleen: Spleen Weight, Relative
# [25] = short-term, duration: 28 days, oral, gavage, F, C57BL/6, Liver: Liver Weight, Absolute + Liver: Liver Weight, Relative
# [26] = short-term, duration: 28 days, oral, gavage, M, C57BL/6, Liver: Acyl-CoA Oxidase Activity, Liver + Liver: Liver Weight, Absolute + Liver: Liver Weight, Relative
# [27] = short-term, duration: 28 days, oral, gavage, M, C57BL/6, Spleen: CD4-/CD8- Cell Count + Spleen: CD4+/CD8+ Cell Count + Spleen: CD8+ Cell Count
# [28] = chronic, duration: 2 years, oral, diet, lungs, liver, kidney, thyroid and thyroid hormones
# [29] = chronic, oral, diet, Liver cytomegaly, fatty metamorphosis, angiectasis + thyroid cystic follicles
# [30] = subchronic, oral, gavage, liver toxicity
# [31] = reproduction developmental, oral, reduced offspring body weight
smiles,measurement,setting,value
CCOP(=S)(OCC)SCSCC [Phorate],NOAEL,"[1]; subchronic, duration: 13 weeks, oral, diet, Cholinesterase: Inhibition",0.033 mg/kg-day
CCOP(=S)(OCC)SCCSCC [Disulfoton],LEL,"[2]; chronic, duration: 2 years, oral, diet, cholinesterase inhibition, optic nerve degeneration",0.04 mg/kg-day
same,LOAEL,"[1]; chronic, duration: 2 years, oral, diet, Blood: Cholinesterase inhibition + Eye: Degeneration",0.04 mg/kg-day
same,LOAEL,"[3]; chronic, duration: 2 years, oral, diet, F, Fischer 344, neurological",0.06 mg/kg-day
same,NOAEL,"[3]; developmental, duration: 364 days, oral, diet, Sprague-Dawley, neurological, developmental",0.009 mg/kg-day
same,NOAEL,"[3]; short-term, duration: 3 weeks, inhalation, Wistar TNO/W 74 albino, neurological",0.1 mg/m3
same,NOAEL,"[3]; short-term, duration: 3 weeks, inhalation, chamber, Wistar TNO/W 74 albino, neurological",0.1 mg/m3
Cn1cc(-c2ccccc2)c(=O)c(-c2cccc(C(F)(F)F)c2)c1 [1-Methyl-3-phenyl-5-(3-(trifluoromethyl)phenyl)-4-pyridone],LEL,[2]; [8],25 mg/kg-day
same,NOEL,[2]; [8],8 mg/kg-day
same,NOEL,"[1]; chronic, duration: 2 years, oral, diet, Kidney: Glomerulonephritis + Organs: Decreased weight + Testis: Atrophy + Whole body: Decreased weight",15.6 mg/kg-day
Oc1ccccc1 [Phenol],NOAEL,"[1]; developmental, oral, gavage, Fetus: Decreased weight",60 mg/kg-day
[Be] [Beryllium],NOAEL,"[1]; chronic, oral, drinking water, None Observed",0.54 mg/kg-day
"Brc1ccc(Oc2ccc(Br)cc2Br)c(Br)c1 [2,2',4,4'-Tetrabromodiphenyl ether]",LOEL,"[4]; developmental, oral, M/F, C57BL/6, generation: F1, F1: Morris water maze (swim speed, first trial) + F1: Morris water maze (swim speed, last trial) + F1: Morris water maze (swim speed, middle…",1 mg/kg-day
same,LOEL,"[4]; reproduction developmental, oral, F, C57BL/6, generation: P0, P0: Morris water maze (latency, first trial)",0.03 mg/kg-day
same,LOAEL,"[3]; subchronic, duration: 8 weeks, oral, gavage, M, Sprague-Dawley, reproductive",0.001 mg/kg-day
O=C(O)C(F)(F)C(F)(F)OC(F)(F)F [Perfluoro-3-methoxypropanoic acid],NOAEL,[4]; [9],50 mg/kg-day
same,NOAEL,[4]; [10],50 mg/kg-day
Oc1ccc(Cc2ccc(O)cc2)cc1 [Bis(4-hydroxyphenyl)methane],NOEL,"[5]; short-term, duration: 28 days, F, CD(SD), Clinical Observation: Decreased locomotor activity Soiled fur Soft stool + Body Weight Changes: decrease + Food Consumption: decrease + …",< 20 mg/kg-day
same,NOEL,"[5]; short-term, duration: 28 days, M, CD(SD), Clinical Observation: Decreased locomotor activity Soiled fur Soft stool + Body Weight Changes: decrease + Food Consumption: decrease + …",20 mg/kg-day
same,LOEL,"[4]; acute, duration: 1 hours, dermal, M, inhibition of arachidonic acid-induced ear edema",0.25 mg/ear
same,LOEL,[4]; [11],25 mg/kg-day
same,NOEL,[4]; [11],12.5 mg/kg-day
same,LOEL,"[6]; duration: 3 days, injection, subcutaneous, F, Crj:CD, uterus: uterine dry weight (absolute) + uterus: uterine dry weight (relative) + uterus: uterine wet weight (absolute) + uterus: uterine wet …",100 mg/kg-day
same,LOEL,[6]; [12],200 mg/kg-day
same,NOEL,[6]; [12],20 mg/kg-day
same,LOEL,[6]; [13],100 mg/kg-day
same,NOEL,[6]; [13],50 mg/kg-day
same,LOEL,[6]; [14],200 mg/kg-day
same,NOEL,[6]; [14],100 mg/kg-day
same,LOEL,"[6]; duration: 5 days, injection, subcutaneous, F, Wistar, uterus: uterine dry weight (relative)",0.5 mg/day
same,LOEL,[6]; [15],1000 mg/kg-day
same,NOEL,[6]; [15],200 mg/kg-day
same,NOEL,"[6]; duration: 10 days, oral, gavage, M, BrlHan:WIST, body weight in the presence of TP + body weight the absence of TP + male accessory sex gland: relative bulbourethral gland weight in the …",1000 mg/kg-day
same,NOEL,"[6]; duration: 10 days, oral, gavage, M, BrlHan:WIST, male accessory sex gland: BC/LA weight (relative) + male accessory sex gland: Cowper's gland weight (relative) + male accessory sex gland: …",1000 mg/kg-day
same,LOEL,[6]; [16],200 mg/kg-day
same,NOEL,[6]; [16],50 mg/kg-day
same,LOEL,"[6]; duration: 28 days, oral, gavage, F, Crj:CD, body weight + brain: brain weight + food consumption + thymus: serum T4",20 mg/kg-day
same,LOEL,[6]; [17],100 mg/kg-day
same,NOEL,[6]; [17],20 mg/kg-day
same,LOEL,[6]; [18],500 mg/kg-day
same,NOEL,[6]; [18],100 mg/kg-day
same,LOEL,[6]; [19],500 mg/kg-day
same,NOEL,[6]; [19],100 mg/kg-day
O=C(O)C(F)(F)C(F)(F)C(F)(F)OC(F)(F)F [Perfluoro(4-methoxybutanoic acid)],LOAEL,[4]; [9],50 mg/kg-day
same,LOAEL,[4]; [10],50 mg/kg-day
same,NOAEL,[4]; [10],5 mg/kg-day
same,NOAEL,"[4]; subchronic, duration: 30 days, oral, gavage, M, C57BL/6, Cardiovascular: Heart: Heart Weight, Relative + Immune: Multi-Organ: Immunoglobulin M (IgM), Serum + Immune: Multi-Organ: Natural Killer (NK…",50 mg/kg-day
same,LOAEL,[4]; [20],50 mg/kg-day
same,NOAEL,[4]; [20],5 mg/kg-day
COP(=S)(OC)Oc1ccc([N+](=O)[O-])cc1 [Methyl parathion],LEL,[2]; [21],0.25 mg/kg-day
same,NOEL,[2]; [21],0.025 mg/kg-day
same,NOAEL,"[1]; subchronic, duration: 90 days, oral, diet, Erythrocytes: Cholinesterase inhibition",0.24 mg/kg-day
same,NOAEL,"[3]; chronic, duration: 28 months, oral, diet, Sprague-Dawley, hematological",0.025 mg/kg-day
same,LOAEL,"[3]; subchronic, duration: 13 weeks, oral, gavage, M, Wistar, neurological",0.22 mg/kg-day
"CC(C)Nc1nc(Cl)nc(NC(C)C)n1 [2,4-Bis(isopropylamino)-6-chloro-1,3,5-triazine]",LEL,[2]; [22],50 mg/kg-day
same,NOEL,[2]; [22],5 mg/kg-day
same,NOEL,"[1]; chronic, duration: 2 years, oral, diet, Whole body: Decreased weight gain",5 mg/kg-day
CCOP(=S)(OCC)Oc1cc(Cl)c(SC)cc1Cl [Chlorthiophos],NOAEL,"[1]; chronic, duration: 2 years, oral, diet, None Observed",0.08 mg/kg-day
"Clc1ccc(Cl)cc1 [1,4-Dichlorobenzene]",LOAEL,[2]; [23],902 mg/m3
same,NOAEL,[2]; [23],301 mg/m3
same,NOAEL,"[1]; chronic, inhalation, intermittent, Liver: Increased weight in male parents",75 mg/m3
same,NOEL,"[5]; subchronic, duration: 13 weeks, M/F, Fischer 344, Deaths + Clinical Observation: Tremors Poor motor response Ocular discharge + Body Weight Changes: decrease + Urinalysis: Coproporphyrin …",< 300 mg/kg-day
O=C(O)C(F)(OC(F)(F)C(F)(F)C(F)(F)F)C(F)(F)F (stereo not given) [Perfluoro-2-methyl-3-oxahexanoic acid],LEL,[4]; [24],100 mg/kg-day
same,NEL,[4]; [24],10 mg/kg-day
same,LEL,[4]; [25],10 mg/kg-day
same,NEL,[4]; [25],1 mg/kg-day
same,NEL,"[4]; short-term, duration: 28 days, oral, gavage, F, C57BL/6, Spleen: B Cell Count + Spleen: CD4-/CD8- Cell Count + Spleen: CD4+ Cell Count + Spleen: CD4+/CD8+ Cell Count + Spleen: CD8+ Cell Count + …",100 mg/kg-day
same,LEL,[4]; [26],10 mg/kg-day
same,NEL,[4]; [26],1 mg/kg-day
same,NEL,"[4]; short-term, duration: 28 days, oral, gavage, M, C57BL/6, Multi-organ: IgM Serum Titer + Spleen: B Cell Count + Spleen: CD4+ Cell Count + Spleen: Spleen Weight, Absolute + Spleen: Spleen Weight, …",100 mg/kg-day
same,LEL,[4]; [27],100 mg/kg-day
same,NEL,[4]; [27],10 mg/kg-day
COC(=O)c1c(Cl)c(Cl)c(C(=O)OC)c(Cl)c1Cl [Chlorthal-dimethyl],LOAEL,[2]; [28],10 mg/kg-day
same,NOAEL,[2]; [28],1 mg/kg-day
same,NOAEL,"[1]; chronic, duration: 2 years, oral, diet, Kidney: Effects + Liver: Effects + Lung: Effects + Thyroid hormones: Effects + Thyroid: Effects",1 mg/kg-day
ClC1(Cl)C2(Cl)C3(Cl)C4(Cl)C(Cl)(Cl)C5(Cl)C3(Cl)C1(Cl)C5(Cl)C24Cl (stereo not given) [Mirex],LOAEL,[2]; [29],0.7 mg/kg-day
same,NOAEL,[2]; [29],0.07 mg/kg-day
same,NOAEL,"[1]; chronic, duration: 2 years, oral, diet, Liver: Angiectasis + Liver: Cytomegaly + Liver: Fatty metamorphosis + Thyroid: Cystic follicles",0.07 mg/kg-day
same,NOAEL,"[3]; chronic, duration: 2 years, oral, diet, Fischer 344, hepatic",0.075 mg/kg-day
same,LEL,[7],1 mg/day
O=C(O)CC(F)(F)C(F)(F)C(F)(F)C(F)(F)C(F)(F)C(F)(F)F [2-(Perfluorohexyl)ethanoic acid],NOAEL,"[4]; short-term, duration: 28 days, oral, gavage, M, CD1, Liver: Alanine Aminotransferase (ALT) + Liver: Albumin (A) + Liver: Alkaline Phosphatase (ALP) + Liver: Aspartate Aminotransferase (AST) + …",5 mg/kg-day
same,LOAEL,"[4]; short-term, duration: 28 days, oral, gavage, M, CD1, Liver: Total Cholesterol (CHOL)",5 mg/kg-day
CCNc1nc(NC(C)C)nc(SC)n1 [Ametryn],LEL,[2]; [30],100 mg/kg-day
same,NOEL,[2]; [30],8.6 mg/kg-day and 10 mg/kg-day
same,NOEL,"[1]; subchronic, duration: 13 weeks, oral, gavage, Liver: Effects",10 mg/kg-day
O=C1C[C@@H]2OCC=C3CN4CC[C@]56c7ccccc7N1[C@H]5[C@H]2[C@H]3C[C@H]46 [Strychnine],LOAEL,"[2]; subchronic, oral, toxicity/histopathology",2.5 mg/kg-day
same,LOAEL,"[1]; short-term, duration: 28 days, oral, gavage, Unspecified: Histopathology + Unspecified: Toxicity",2.5 mg/kg-day
O=C1CCCCCN1 [Caprolactam],LOAEL,[2]; [31],250 mg/kg-day
same,NOAEL,[2]; [31],50 mg/kg-day
same,NOAEL,"[1]; subchronic, duration: 90 days, oral, diet, Kidney: Effects",50 mg/kg-day
